Counter-ions that a name gives are not always drawn. Like-named read-outs stand apart in the source and are kept apart here.
System: 22RV1 cells
Test: Experiment 2 on inhibiting 22RV1 cell proliferation (7 days, CellTiter-Glo)
Assay type: cell-based
Conditions: 1% css-FBS phenol red-free medium, incubated with compound 7 days, read-out: IC50 values on proliferation inhibition of 22RV1 cells
Protocol: Prostate cancer cells 22RV1 were purchased from ATCC, the cell medium was RPMI 1640+10% FBS, and the cells were cultured in an incubator at 37° C. under 5% CO2. On day 1, the cells in an exponential phase were collected. With a 1% css-FBS phenol red-free medium, the cell suspension was adjusted to a corresponding concentration, plated at 2000 cells/well and incubated overnight. On day 2, compounds at different concentrations were added, and the plate was placed in the incubator and incubated for further 7 days. After the incubation was completed, according to operation instructions for a CellTiter-Glo kit (Promega, G7573), 50 μL of CTG solution, which was already pre-melted and equilibrated to room temperature, was added to each well, and the mixtures were uniformly mixed for 2 min using a microplate shaker. The plate was placed at room temperature for 10 min, and then fluorescence signal values were measured using a microplate reader (PHERAstar FSX). The results were processed according to formula (2), the survival rate of the compound at different concentrations was calculated, and the IC50 value of the compound with a survival rate of 50% was calculated using origin9.2 software with DoseResp function, wherein RLU compound was the readout of the treated group, and RLU control was the average value of the DMSO vehicle control group.

Row | SMILES | IC50 [nM] | IC50 (Homo sapiens, 22Rv1, 168 h) [nM]
1 | CC(C)(c1ccc(OCc2ccnc(N3CCC4(CC3)CCN(C3CCN(CC5CCN(c6cccc7c6C(=O)N(C6CCC(=O)NC6=O)C7=O)CC5)CC3)CC4)n2)cc1)c1cc(Cl)c(OCCCl)c(C#N)c1 (stereo not shown) [Compound 28, 3-chloro-2-(2-chloroethoxy)-5-(2-(4-((2-(9-(1-((1-(2-(2,6-dioxopiperidin-3-yl)-1,3-dioxoisoindolin-4-yl)piperidin-4-yl)methyl)piperidin-4-yl)-3,9-diazaspiro[5.5]undecan-3-yl)pyrimidin-4-yl)methoxy)phenyl)propan-2-yl)benzonitrile] | 634 | 
2 | CC(C)(c1ccc(OCc2ccnc(N3CCC4(CC3)CCN(C3CCN(C5CN(c6ccc7c(c6)C(=O)N(C6CCC(=O)NC6=O)C7=O)C5)CC3)CC4)n2)cc1)c1cc(Cl)c(OCCCl)c(C#N)c1 (stereo not shown) [Compound 30 trifluoroacetate, 3-chloro-2-(2-chloroethoxy)-5-(2-(4-((2-(9-(1-(1-(2-(2,6-dioxopiperidin-3-yl)-1,3-dioxoisoindolin-5-yl)azetidin-3-yl)piperidin-4-yl)-3,9-diazaspiro[5.5]undecan-3-yl)pyrimidin-4-yl)methoxy)phenyl)propan-2-yl)benzonitrile] |  | 834
3 | CC(C)(c1ccc(OCc2ccnc(N3CCC(CN4CCN(c5cccc6c5C(=O)N(C5CCC(=O)NC5=O)C6=O)CC4)CC3)n2)cc1)c1cc(Cl)cc(C#N)c1 (stereo not shown) [Compound 39 trifluoroacetate, 3-chloro-5-(2-(4-((2-(4-((4-(2-(2,6-dioxopiperidin-3-yl)-1,3-dioxoisoindolin-4-yl)piperazin-1-yl)methyl)piperidin-1-yl)pyrimidin-4-yl)methoxy)phenyl)propan-2-yl)benzonitrile] |  | 936
4 | CC(C)(c1ccc(OCc2ccnc(N3CCC(N4CCC(CN5CCN(c6cccc7c6C(=O)N(C6CCC(=O)NC6=O)C7=O)CC5)CC4)CC3)n2)cc1)c1cc(Cl)cc(C#N)c1 (stereo not shown) [Compound 40 trifluoroacetate, 3-chloro-5-(2-(4-((2-(4-((4-(2-(2,6-dioxopiperidin-3-yl)-1,3-dioxoisoindolin-4-yl)piperazin-1-yl)methyl)-[1,4′-bipiperidin]-1′-yl)pyrimidin-4-yl)methoxy)phenyl)propan-2-yl)benzonitrile] |  | 764
5 | CC(C)(c1ccc(OCc2ccnc(N3CCC(N4CCC(CN5CCN(c6ccc7c(c6)C(=O)N(C6CCC(=O)NC6=O)C7=O)CC5)CC4)CC3)n2)cc1)c1cc(Cl)cc(C#N)c1 (stereo not shown) [Compound 42 trifluoroacetate, 3-chloro-5-(2-(4-((2-(4-((4-(2-(2,6-dioxopiperidin-3-yl)-1,3-dioxoisoindolin-5-yl)piperazin-1-yl)methyl)-[1,4′-bipiperidin]-1′-yl)pyrimidin-4-yl)methoxy)phenyl)propan-2-yl)benzonitrile] |  | 453
6 | CC(C)(c1ccc(OCc2ccnc(N3CC(N4CCC(CN5CCN(c6cccc7c6C(=O)N(C6CCC(=O)NC6=O)C7=O)CC5)CC4)C3)n2)cc1)c1cc(Cl)cc(C#N)c1 (stereo not shown) [Compound 48 trifluoroacetate, 3-chloro-5-(2-(4-((2-(3-(4-((4-(2-(2,6-dioxopiperidin-3-yl)-1,3-dioxoisoindolin-4-yl)piperazin-1-yl)methyl)piperidin-1-yl)azetidin-1-yl)pyrimidin-4-yl)methoxy)phenyl)propan-2-yl)benzonitrile] |  | 608
7 | CC(C)(c1ccc(OCc2ccnc(N3CCN(C4CCN(CC5CCN(c6ccc7c(c6)C(=O)N(C6CCC(=O)NC6=O)C7=O)CC5)CC4)CC3)n2)cc1)c1cc(Cl)cc(C#N)c1 (stereo not shown) [Compound 49 trifluoroacetate, 3-chloro-5-(2-(4-((2-(4-(1-((1-(2-(2,6-dioxopiperidin-3-yl)-1,3-dioxoisoindolin-5-yl)piperidin-4-yl)methyl)piperidin-4-yl)piperazin-1-yl)pyrimidin-4-yl)methoxy)phenyl)propan-2-yl)benzonitrile] |  | 494
8 | Cc1ncsc1-c1ccc([C@H](C)NC(=O)[C@@H]2C[C@@H](O)CN2C(=O)[C@@H](NC(=O)CN2CCC(CN3CCC(N4CCN(c5nccc(COc6ccc(C(C)(C)c7cc(Cl)cc(C#N)c7)cc6)n5)CC4)CC3)CC2)C(C)(C)C)cc1 [Compound 50 trifluoroacetate, (2S,4R)-1-((S)-2-(2-(4-((4-(4-(4-((4-(2-(3-chloro-5-cyanophenyl)propan-2-yl)phenoxy)methyl)pyrimidin-2-yl)piperazin-1-yl)piperidin-1-yl)methyl)piperidin-1-yl)acetamido)-3,3-dimethylbutanoyl)-4-hydroxy-N-((S)-1-(4-(4-methylthiazol-5-yl)phenyl)ethyl)pyrrolidine-2-carboxamide] |  | 398

Now from value to molecule:

Row | IC50 [nM] | IC50 (Homo sapiens, 22Rv1, 168 h) [nM] | SMILES
9 | 663 |  | CC(C)(c1ccc(OCc2ccnc(N3CCC4(CC3)CCN(C3CCN(CC5CCN(c6ccc7c(c6)C(=O)N(C6CCC(=O)NC6=O)C7=O)CC5)CC3)CC4)n2)cc1)c1cc(Cl)c(OCCCl)c(C#N)c1 (stereo not shown) [Compound 27, 3-chloro-2-(2-chloroethoxy)-5-(2-(4-((2-(9-(1-((1-(2-(2,6-dioxopiperidin-3-yl)-1,3-dioxoisoindolin-5-yl)piperidin-4-yl)methyl)piperidin-4-yl)-3,9-diazaspiro[5.5]undecan-3-yl)pyrimidin-4-yl)methoxy)phenyl)propan-2-yl)benzonitrile]
10 |  | 788 | Cn1c(=O)n(C2CCC(=O)NC2=O)c2cccc(CN3CC(N4CCC5(CCN(c6nccc(COc7ccc(C(C)(C)c8cc(Cl)c(OCCCl)c(C#N)c8)cc7)n6)CC5)CC4)C3)c21 (stereo not shown) [Compound 29 trifluoroacetate, 3-chloro-2-(2-chloroethoxy)-5-(2-(4-((2-(9-(1-((1-(2,6-dioxopiperidin-3-yl)-3-methyl-2-oxo-2,3-dihydro-1H-benzo[d]imidazol-4-yl)methyl)azetidin-3-yl)-3,9-diazaspiro[5.5]undecan-3-yl)pyrimidin-4-yl)methoxy)phenyl)propan-2-yl)benzonitrile]
11 |  | 401 | Cn1c(=O)n(C2CCC(=O)NC2=O)c2cccc(CN3CC(N4CCC(N5CCC6(CCN(c7nccc(COc8ccc(C(C)(C)c9cc(Cl)c(OCCCl)c(C#N)c9)cc8)n7)CC6)CC5)CC4)C3)c21 (stereo not shown) [Compound 31 trifluoroacetate, 3-chloro-2-(2-chloroethoxy)-5-(2-(4-((2-(9-(1-(1-((1-(2,6-dioxopiperidin-3-yl)-3-methyl-2-oxo-2,3-dihydro-1H-benzo[d]imidazol-4-yl)methyl)azetidin-3-yl)piperidin-4-yl)-3,9-diazaspiro[5.5]undecan-3-yl)pyrimidin-4-yl)methoxy)phenyl)propan-2-yl)benzonitrile]
12 |  | 883 | CC(C)(c1ccc(OCc2ccnc(N3CCC(C4CCN(CC5CCN(c6ccc7c(c6)C(=O)N(C6CCC(=O)NC6=O)C7=O)CC5)CC4)CC3)n2)cc1)c1cc(Cl)cc(C#N)c1 (stereo not shown) [Compound 38 trifluoroacetate, 3-chloro-5-(2-(4-((2-(1′-((1-(2-(2,6-dioxopiperidin-3-yl)-1,3-dioxoisoindolin-5-yl)piperidin-4-yl)methyl)-[4,4′-bipiperidin]-1-yl)pyrimidin-4-yl)methoxy)phenyl)propan-2-yl)benzonitrile]
13 |  | 633 | CC(C)(c1ccc(OCc2ccnc(N3CCC(CN4CCN(c5ccc6c(c5)C(=O)N(C5CCC(=O)NC5=O)C6=O)CC4)CC3)n2)cc1)c1cc(Cl)cc(C#N)c1 (stereo not shown) [Compound 41 trifluoroacetate, 3-chloro-5-(2-(4-((2-(4-((4-(2-(2,6-dioxopiperidin-3-yl)-1,3-dioxoisoindolin-5-yl)piperazin-1-yl)methyl)piperidin-1-yl)pyrimidin-4-yl)methoxy)phenyl)propan-2-yl)benzonitrile]
14 |  | 94 | Cc1ncsc1-c1ccc([C@H](C)NC(=O)[C@@H]2C[C@@H](O)CN2C(=O)[C@@H](NC(=O)CN2CCC(N3CCC(CN4CCN(c5nccc(COc6ccc(C(C)(C)c7cc(Cl)cc(C#N)c7)cc6)n5)CC4)CC3)CC2)C(C)(C)C)cc1 [Compound 43 trifluoroacetate, (2S,4R)-1-((S)-2-(2-(4-((4-(4-((4-(2-(3-chloro-5-cyanophenyl)propan-2-yl)phenoxy)methyl)pyrimidin-2-yl)piperazin-1-yl)methyl)-[1,4′-bipiperidin]-1′-yl)acetamido)-3,3-dimethylbutanoyl)-4-hydroxy-N-((S)-1-(4-(4-methylthiazol-5-yl)phenyl)ethyl)pyrrolidine-2-carboxamide]
15 |  | 461 | CC(C)(c1ccc(OCc2ccnc(N3CCN(C4CCN(C5CCC6(CC5)CN(c5ccc7c(c5)C(=O)N(C5CCC(=O)NC5=O)C7=O)C6)CC4)CC3)n2)cc1)c1cc(Cl)cc(C#N)c1 (stereo not shown) [Compound 46 trifluoroacetate, 3-chloro-5-(2-(4-((2-(4-(1-(2-(2-(2,6-dioxopiperidin-3-yl)-1,3-dioxoisoindolin-5-yl)-2-azaspiro[3.5]nonan-7-yl)piperidin-4-yl)piperazin-1-yl)pyrimidin-4-yl)methoxy)phenyl)propan-2-yl)benzonitrile]
16 |  | 724 | CC(C)(c1ccc(OCc2ccnc(N3CC(N4CCC(CN5CCN(c6ccc7c(c6)C(=O)N(C6CCC(=O)NC6=O)C7=O)CC5)CC4)C3)n2)cc1)c1cc(Cl)cc(C#N)c1 (stereo not shown) [Compound 47 trifluoroacetate, 3-chloro-5-(2-(4-((2-(3-(4-((4-(2-(2,6-dioxopiperidin-3-yl)-1,3-dioxoisoindolin-5-yl)piperazin-1-yl)methyl)piperidin-1-yl)azetidin-1-yl)pyrimidin-4-yl)methoxy)phenyl)propan-2-yl)benzonitrile]
